Laboratory results published in PubChem BioAssay AID256 (DTP/NCI, 2004).
“And” between values parts separate entries of the source, which are not always exact repeats. Identical values can stand only once. Toxic doses and inconclusive results are not listed. How the source made its calls: active means survival T/C of 150% or more; inactive means T/C below 125% in these data.

Tested on: CD2F1 mice, L1210 leukemia ip, survival T/C
Assay: NCI In Vivo Anticancer Drug Screen. Data for tumor model L1210 Leukemia (intraperitoneal) in CD2F1 (CDF1) mice
Conditions: higher = longer survival
How it was run: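 Implant tumor; dose compound or vehicle; measure endpoint in both groups; report treated divided by control.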

[1] = endpoint: mean survival time, dose: 25.0 mg/kg/injection, schedule: Q01DX009 (ip), vehicle: saline with Tween-80
[2] = endpoint: mean survival time, dose: 50.0 mg/kg/injection, schedule: Q01DX009 (ip), vehicle: saline with Tween-80
[3] = endpoint: mean survival time, dose: 100.0 mg/kg/injection, schedule: Q01DX009 (ip), vehicle: saline with Tween-80
[4] = endpoint: mean survival time, dose: 100.0 mg/kg/injection, schedule: Q04DX002 (ip), vehicle: saline with Tween-80
[5] = endpoint: mean survival time, dose: 200.0 mg/kg/injection, schedule: Q04DX002 (ip), vehicle: saline with Tween-80
[6] = endpoint: mean survival time, dose: 50.0 mg/kg/injection, schedule: Q01DX009 (ip), vehicle: Klucel (hydroxypropylcellulose) (HPC)
[7] = endpoint: mean survival time, dose: 100.0 mg/kg/injection, schedule: Q01DX009 (ip), vehicle: Klucel (hydroxypropylcellulose) (HPC)
[8] = endpoint: mean survival time, dose: 200.0 mg/kg/injection, schedule: Q01DX009 (ip), vehicle: Klucel (hydroxypropylcellulose) (HPC)
[9] = endpoint: mean survival time, dose: 100.0 mg/kg/injection, schedule: Q04DX003 (ip), vehicle: saline with Tween-80
[10] = endpoint: mean survival time, dose: 200.0 mg/kg/injection, schedule: Q01DX009 (ip), vehicle: saline with Tween-80
[11] = endpoint: mean survival time, dose: 200.0 mg/kg/injection, schedule: Q04DX003 (ip), vehicle: saline with Tween-80
[12] = endpoint: mean survival time, dose: 400.0 mg/kg/injection, schedule: Q01DX009 (ip), vehicle: saline with Tween-80
[13] = endpoint: mean survival time, dose: 400.0 mg/kg/injection, schedule: Q04DX003 (ip), vehicle: saline with Tween-80
[14] = endpoint: mean survival time, dose: 100.0 mg/kg/injection, schedule: Q01DX001 (ip), vehicle: saline with Tween-80
[15] = endpoint: mean survival time, dose: 200.0 mg/kg/injection, schedule: Q01DX001 (ip), vehicle: saline with Tween-80
[16] = endpoint: mean survival time, dose: 400.0 mg/kg/injection, schedule: Q01DX001 (ip), vehicle: saline with Tween-80

Measured: T/C

O=C(Cc1ccccn1)c1ccccc1
inactive: endpoint: mean survival time, dose: 100.0 mg/kg/injection, schedule: Q01DX009 (ip), vehicle: other 101 % of control | endpoint: mean survival time, dose: 200.0 mg/kg/injection, schedule: Q01DX009 (ip), vehicle: other 96 % of control | endpoint: mean survival time, dose: 400.0 mg/kg/injection, schedule: Q01DX009 (ip), vehicle: other 96 % of control

COc1ccc(NC(=O)Oc2ccc(C(C)(C)C)cc2)cc1
inactive: [1] 93 % of control | endpoint: mean survival time, dose: 25.0 mg/kg/injection, schedule: Q04DX002 (ip), vehicle: saline with Tween-80 104 % of control | [2] 97 % of control | endpoint: mean survival time, dose: 50.0 mg/kg/injection, schedule: Q04DX002 (ip), vehicle: saline with Tween-80 117 % of control | [3] 97 % of control | [4] 87 % of control and 93 % of control

CC(CCC1OC2CC3C4CCC5CC(OC(=O)c6ccccc6)CCC5(C)C4CCC3(C)C2C1C)COC(=O)c1ccccc1 (configuration not stated)
inactive: [4] 90 % of control | [5] 94 % of control | endpoint: mean survival time, dose: 400.0 mg/kg/injection, schedule: Q04DX002 (ip), vehicle: saline with Tween-80 86 % of control

O=C(O)c1ccccc1C(=O)NCc1ccccn1
inactive: [6] 90 % of control | [7] 97 % of control | [8] 101 % of control

OCC1OC(n2c(C(F)(F)F)nc3cc4ccccc4cc32)C(O)C1O (configuration not stated)
inactive: endpoint: median survival time, dose: 22.5 mg/kg/injection, schedule: Q01DX005 (ip), vehicle: saline with Tween-80 103 % of control | endpoint: median survival time, dose: 45.0 mg/kg/injection, schedule: Q01DX005 (ip), vehicle: saline with Tween-80 103 % of control | endpoint: median survival time, dose: 90.0 mg/kg/injection, schedule: Q01DX005 (ip), vehicle: saline with Tween-80 93 % of control | endpoint: median survival time, dose: 180.0 mg/kg/injection, schedule: Q01DX005 (ip), vehicle: saline with Tween-80 98 % of control

Cn1c(CS)nc2ccccc21
inactive: [4] 101 % of control | [5] 93 % of control

O=C(c1ccc(F)cc1)c1ccccc1Cl
inactive: [3] 102 % of control | [9] 105 % of control | [10] 97 % of control | [11] 98 % of control | [12] 97 % of control | [13] 98 % of control

CCCCN1C(=O)C(=O)N(c2ccc(NC(C)=O)cc2)C1=O
inactive: [2] 93 % of control | [3] 89 % of control | [10] 89 % of control

N#CCCOS(=O)(=O)c1ccc(N)c([N+](=O)[O-])c1
inactive: [14] 103 % of control | [3] 93 % of control | [15] 100 % of control | [10] 96 % of control | [16] 102 % of control | [12] 96 % of control

Cc1ccc(S(=O)(=O)/C=C(/I)C(=O)c2ccccc2)cc1
inactive: endpoint: mean survival time, dose: 100.0 mg/kg/injection, schedule: Q01DX009 (ip), vehicle: saline 90 % of control | endpoint: mean survival time, dose: 100.0 mg/kg/injection, schedule: Q04DX003 (ip), vehicle: saline 100 % of control | endpoint: mean survival time, dose: 200.0 mg/kg/injection, schedule: Q01DX009 (ip), vehicle: saline 93 % of control | endpoint: mean survival time, dose: 200.0 mg/kg/injection, schedule: Q04DX003 (ip), vehicle: saline 96 % of control | endpoint: mean survival time, dose: 400.0 mg/kg/injection, schedule: Q01DX009 (ip), vehicle: saline 88 % of control | endpoint: mean survival time, dose: 400.0 mg/kg/injection, schedule: Q04DX003 (ip), vehicle: saline 108 % of control

COC1OC(COC(c2ccccc2)(c2ccccc2)c2ccccc2)C(OC(C)=O)C1OC(C)=O (configuration not stated)
inactive: endpoint: mean survival time, dose: 100.0 mg/kg/injection, schedule: Q04DX003 (ip), vehicle: Klucel (hydroxypropylcellulose) (HPC) 109 % of control | endpoint: mean survival time, dose: 200.0 mg/kg/injection, schedule: Q04DX003 (ip), vehicle: Klucel (hydroxypropylcellulose) (HPC) 89 % of control | endpoint: mean survival time, dose: 400.0 mg/kg/injection, schedule: Q04DX003 (ip), vehicle: Klucel (hydroxypropylcellulose) (HPC) 89 % of control

Cc1ccc(S(=O)(=O)Nc2ccccc2SSc2ccccc2NS(=O)(=O)c2ccc(C)cc2)cc1
inactive: endpoint: mean survival time, dose: 100.0 mg/kg/injection, schedule: Q01DX001 (ip), vehicle: Klucel (hydroxypropylcellulose) (HPC) 96 % of control | endpoint: mean survival time, dose: 200.0 mg/kg/injection, schedule: Q01DX001 (ip), vehicle: Klucel (hydroxypropylcellulose) (HPC) 96 % of control | endpoint: mean survival time, dose: 400.0 mg/kg/injection, schedule: Q01DX001 (ip), vehicle: Klucel (hydroxypropylcellulose) (HPC) 90 % of control

O=C1C(O)CC(c2ccccc2)N1c1ccccc1 (configuration not stated)
inactive: [9] 95 % of control | [11] 95 % of control | [13] 100 % of control

CCCCc1ccc(O)c(CN2CCCCC2)c1
inactive: endpoint: mean survival time, dose: 25.0 mg/kg/injection, schedule: Q04DX003 (ip), vehicle: saline with Tween-80 97 % of control | endpoint: mean survival time, dose: 50.0 mg/kg/injection, schedule: Q04DX003 (ip), vehicle: saline with Tween-80 102 % of control | [9] 98 % of control and 100 % of control

Cc1ccc(C(=O)CC#N)c(C)c1
inactive: [3] 96 % of control | [9] 98 % of control | [11] 112 % of control | [12] 90 % of control | [13] 102 % of control

CC1CN(C(=N)C#N)C(C)CN1C(=N)C#N (configuration not stated)
inactive: endpoint: mean survival time, dose: 6.25 mg/kg/injection, schedule: Q01DX009 (ip), vehicle: saline with Tween-80 96 % of control | endpoint: mean survival time, dose: 12.5 mg/kg/injection, schedule: Q01DX009 (ip), vehicle: saline with Tween-80 102 % of control | [1] 105 % of control

Nc1ccc(S(=O)(=O)S(=O)(=O)c2ccc(N)cc2)cc1
inactive: [14] 93 % of control | [15] 97 % of control

O=[N+]([O-])c1ccc(Oc2c(Cl)cc(Cl)c(Cl)c2Cl)c([N+](=O)[O-])c1
inactive: endpoint: mean survival time, dose: 75.0 mg/kg/injection, schedule: Q01DX001 (ip), vehicle: other 100 % of control | endpoint: mean survival time, dose: 150.0 mg/kg/injection, schedule: Q01DX001 (ip), vehicle: other 102 % of control | endpoint: mean survival time, dose: 300.0 mg/kg/injection, schedule: Q01DX001 (ip), vehicle: other 94 % of control

COc1cc(C(=O)CC2CCCCN2)ccc1O (configuration not stated)
inactive: endpoint: mean survival time, dose: 50.0 mg/kg/injection, schedule: Q01DX Z (ip), vehicle: saline 98 % of control | endpoint: mean survival time, dose: 100.0 mg/kg/injection, schedule: Q01DX Z (ip), vehicle: saline 96 % of control | endpoint: mean survival time, dose: 200.0 mg/kg/injection, schedule: Q01DX Z (ip), vehicle: saline 100 % of control

CCOC(=O)C(C(C)=O)C(=O)c1ccc([N+](=O)[O-])cc1 (configuration not stated)
inactive: [3] 102 % of control | [9] 100 % of control | [10] 101 % of control | [11] 102 % of control | [12] 98 % of control | [13] 100 % of control

CSc1ncnc2c1ccn2C1OC(CO)C(O)C1O (configuration not stated)
inactive: endpoint: median survival time, dose: 12.5 mg/kg/injection, schedule: Q01DX005 (ip), vehicle: saline 106 % of control | endpoint: median survival time, dose: 25.0 mg/kg/injection, schedule: Q01DX005 (ip), vehicle: saline 105 % of control | endpoint: median survival time, dose: 50.0 mg/kg/injection, schedule: Q01DX005 (ip), vehicle: saline 102 % of control | endpoint: median survival time, dose: 100.0 mg/kg/injection, schedule: Q01DX005 (ip), vehicle: saline 103 % of control | endpoint: median survival time, dose: 200.0 mg/kg/injection, schedule: Q01DX005 (ip), vehicle: saline 94 % of control

NC(=S)N/N=C/c1cc([N+](=O)[O-])ccc1O
inactive: [6] 113 % of control | [7] 97 % of control | [8] 101 % of control

CCCCCCCCCCCCCCCCC1CCC2CCCCC12 (configuration not stated)
inactive: [14] 104 % of control | [15] 107 % of control | [16] 97 % of control
